Measured values published in patent US9089576B2, “Medicament comprising a peptide extract of avocado, which is intended for the treatment and prevention of illnesses that are linked to an immune system deficiency or oxidative stress or skin ageing or dry skin” (LABORATOIRES EXPANSCIENCE, priority 2004, dated 2015).
Where “and” joins values, the source holds several entries; their conditions need not be identical. Identical values can stand only once. Like-named read-outs stand apart in the source and are kept apart here. Marks after values point to notes of the source that are not given here.

Assays:
[1] = tested on: Jurkat cell line (human lymphoid cells); assay: Anti-radical activity: intracellular lipid peroxides after H2O2 (C11-fluorine probe, flow cytometry); format: cell-based; conditions: 100 μM BHA; 10 μM H2O2, 30 minutes
Method: The relative lipid peroxide content inside the cells was measured in the basal state and following hydrogen peroxide treatment (H2O2, radical species production stimulation).
This measurement was made using a specific fluorescent probe selected and quantified by means of flow cytometry. This technique offers the advantage of very high specificity by measuring the fluorescence of individual cells, on a large number of cells (10,000 cells analysed per sample).
The cells were prepared in phenol red-free DMEM medium [Merck] with 1.87 mg/ml sodium bicarbonate [Invitrogen] according to the following conditions: • cells treated with H2O2 with the C11-fluorine probe (to quantify lipid peroxides); • cells not treated with H2O2 with C11-fluorine probe.
The probe was incorporated in the cells and the cells were then washed and incubated in the presence or not (standard) of 0.05%, 0.1%, 0.2% and 1% DM avocado peptides or 100 μM BHA (Butylated hydroxyanisole) [Sigma] […]
In the presence of hydrogen peroxide, the C11-fluorine probe integrated in the membranes is oxidised and its fluorescence decreases. Therefore, a decrease in the fluorescence signal conveys an increase in the membrane lipid peroxide content (and conversely).
The between-group comparisons were conducted using the Student's test and the protection percentage (P) was calculated as follows:

oxidised proteins = assay: Oxidised proteins content in replication-aged fibroblast model (INCell Analyzer analysis); format: cell-based, human; conditions: P16 fibroblasts; 150 μM BHA; 72 hours
Method: The study was conducted on normal human dermal fibroblasts at passage 8 (P8, control conditions) and brought to senescence using two separate methods: • accelerated ageing by means of successive replications: fibroblasts at passage 16 (P16), • accelerated ageing by means of H2O2.
The fibroblasts were cultured in DMEM medium [Invitrogen] supplemented with 2 mM L-glutamine [Invitrogen] and 10% Fetal Calf Serum [FCS, Invitrogen].
After incubation, the cells were rinsed and fixed with methanol. The fluorescein-5-thiosemicarbazide probe (20 μM) [Invitrogen] was added for 30 minutes at ambient temperature and, in parallel, the cell nuclei were stained with Hoechst [Sigma]. The image acquisition was performed using the INCell Analyzer™ 1000 unit [GE Healthcare], with the ×20 lens.

[2] = tested on: Glycosaminoglycan (GAG) synthesis; assay: GAG synthesis by keratinocytes (35S-sulphate incorporation); format: cell-based, human; conditions: 72 hours
Method: (§1) Normal human epidermal keratinocytes (NHEK) were pre-cultured for 24 hours at 37° C., 5% CO2 in calcium-depleted (0.09 mM) SFM medium [Invitrogen] supplemented with 0.25 ng/ml EGF [Invitrogen], 25 μg/ml pituitary extract [Invitrogen] and 25 μg/ml gentamycin [Sigma].
(§2) Two identical runs were prepared to assay, on one hand, hyaluronic acid release/production and, on the other, […] incorporation in the GAG fraction. The group corresponding to the GAG assay was supplemented with ^35S-sulphate [Amersham] after 48 hours of culture (labelling for the last 24 hours).
At the end of the treatment, in the group corresponding to the GAG assay, the incorporated radioactivity was counted and thus the variation in GAG synthesis with respect to the analysed control.
(§3) The between-group comparisons were conducted by means of an analysis of variance using the Dunnett multiple comparison test.

[3] = tested on: Rat peritoneal mast cells; assay: Tryptase release by mast cells stimulated with calcium ionophore A23187; format: cell-based; conditions: Ca ionophore + 50 μM Quercetin
Method: (reference tryptase release inhibitory molecule).
The cells were then stimulated for 15 minutes by 0.5 μM calcium ionophore A23187 [Millipore] to induce the release of tryptase.
The reaction was stopped by means of centrifugation at 4° C. The tryptase was assayed in the pellets and in the supernatants by means of a commercial kit [Millipore] based on the spectrophotometric detection of the chromophore p-nitroaniline (pNA) after cleavage of the substrate tosyl-gly-pro-lys-pNA by tryptase.

Heme oxygenase 1 = assay: DNA array gene expression, Skinethic reconstructed epidermises: Heme oxygenase 1; format: cell-based; conditions: 1 μM retinoic acid
Thioredoxin = conditions: 1 μM retinoic acid
Method: The gene expression analysis conducted using standard simplified DNA arrays. These mini-chips were produced on a Nylon substrate, spotting specific cDNA of the markers of interest.
The analysis was conducted using proprietary optimised miniaturised technology, based on the use of messenger RNA and ^33P labelling:
At the end of each culture time, the epidermises were rinsed with a PBS solution. The total RNA in the epidermises was then extracted and purified using Tri-Reagent [Sigma] according to a standardised protocol. The quantity and quality of the RNA were then evaluated using an Agilent 2001 bioanalyser.
The mRNA from each culture was then reverse transcribed using oligodT and a deoxyribonucleotide triphosphate labelled with ^33P. Multiple cDNA ‘target’ labelled sequences were produced for each culture. These targets were then hybridised, under optimised conditions, with the excess ‘probe’ cDNA fixed on the membranes. After washing, the relative quantity of labelled target was detected by means of direct counting on PhosphorImager.
The membrane analysis was conducted using ImageQuant TL software [Image Analysis, Amersham Biosciences].

Desmosglein 1 = assay: DNA array gene expression, Skinethic reconstructed epidermises: Desmosglein 1; format: cell-based; conditions: 1 μM retinoic acid
[4] = tested on: SPRL6A (epidermal differentiation complex protein like protein); assay: DNA array gene expression, Skinethic reconstructed epidermises: SPRL6A; format: cell-based; conditions: 1 μM retinoic acid
[5] = tested on: Normal human dermal fibroblasts (NHDF); assay: NHDF proliferation (neutral red incorporation); format: cell-based; conditions: 1 μM retinoic acid; 48 hours; RPMI 1% FCS
Method: (§4) The cell proliferation was evaluated using a neutral red incorporation tests. This test is based on the ability of living cells to incorporate and fix neutral red, a supravital staining agent. Therefore, the staining activity intensity (optical density measurement of cell lysates) reflects the quantity of living cells.
(§5) Normal human epidermal keratinocytes (NHEK), supplied by Cambrex, were cultured in KGM2 culture medium [Cambrex]. Normal human dermal fibroblasts (NHDF), supplied by Cambrex, were cultured in RPMI 1640 medium with GlutaMAX I [Invitrogen] supplemented with 1% or 10% fetal calf serum [FCS, Invitrogen].
(§6) The cells were inoculated in 96-well plates in KGM2 medium for the NHEK and in RPMI medium with 1% FCS for the NHDF.
(§7) (positive reference) in KGM2 medium for the NHEK or in RPMI medium with 1% FCS for the NHDF.
An additional condition was conducted for the NHDF: treatment with complete medium (RPMI with 10% FCS: optimal conditions for NHDF proliferation).
(§8) At the end of treatment, the quantity of cells per well was evaluated by means of a neutral red incorporation test:
(§9) After 3 hours in contact with neutral red, the cells were rinsed and lysed and the optical density proportional to the quantity of living cells was read at 540 nm against the blank (well with no cells).

S100 A8 = assay: DNA array gene expression, Skinethic reconstructed epidermises: S100 A8; format: cell-based; conditions: 1 μM retinoic acid
S100 A9 = assay: DNA array gene expression, Skinethic reconstructed epidermises: S100 A9; format: cell-based; conditions: 1 μM retinoic acid
[6] = tested on: Lysyl oxidase like 2 (LOXL2); assay: DNA array gene expression, Skinethic reconstructed epidermises: LOXL2; format: cell-based; conditions: 1 μM retinoic acid
S100 A7 = assay: DNA array gene expression, Skinethic reconstructed epidermises: S100 A7; format: cell-based; conditions: 1 μM retinoic acid
Elafin = assay: DNA array gene expression, Skinethic reconstructed epidermises: Elafin; format: cell-based; conditions: 1 μM retinoic acid
hyaluronic acid = assay: Hyaluronic acid synthesis/release by keratinocytes (ELISA); format: cell-based, human; conditions: 0.1 μM retinoic acid, 72 hours
Method: as §1, §2
In the group corresponding to the hyaluronic acid assay, at the end of treatment, the culture supernatants were sampled and the hyaluronic acid assayed using a specific modified ELISA test [Biogenic].
as §3

[7] = tested on: Normal human epidermal keratinocytes (NHEK); assay: NHEK proliferation (neutral red incorporation); format: cell-based; conditions: 1 μM retinoic acid; 48 hours
Method: as §4, §5, §6, §7, §8, §9

NICE-1 protein = assay: DNA array gene expression, Skinethic reconstructed epidermises: NICE-1; format: cell-based; conditions: 1 μM retinoic acid
hBD-2 = assay: Induction of hBD-2 in normal human keratinocytes (ELISA); format: cell-based; conditions: IL-1β 100 ng/ml, 24 hours
Method: Normal human keratinocytes are seeded in 96 well plates (about 20,000 cells/well), in the presence of a specific medium which is enriched in calcium (final concentration 1.3 mM), as formerly described in the publication “Human β-Defensin-2 production in Keratinocytes is regulated by Interleukin-1, Bacteria, and the State of Differentiation”, Alice Y. Liu et al., The Society for Investigative Dermatology, vol. 118, No 2, February 2002, pages 275-281.
After 24 hours incubation, the induction of hBD-2 is assessed with an ELISA technique using a specific antibody (goat polyclonal to human BD2; Abcam; ab9871).

MMP1 = assay: Gene expression of MMP1 in PMA-stimulated fibroblasts (real-time RT-PCR); format: cell-based, human; conditions: 1 mg/ml TGF b1 pre-treatment 16 hours, then 10 nM PMA 2 hours
Method: After 16 hours of incubation, the fibroblasts were stimulated for 2 hours with 10 nM PMA (Phorbol Myristate Acetate) [Sigma] in RPMI medium without FCS.
For the study of the expression of MMP1, the inhibition percentage was calculated as follows: […]

Collagen I = assay: Gene expression of Collagen I in fibroblasts (real-time RT-PCR); format: cell-based, human; conditions: 24 hours
Method: (§10) The cells were then incubated at 37° C., 5% CO2 for 24 hours for the collagen I and elastin study or 48 hours for the LOX and LOXL study.

Elastin = assay: Gene expression of Elastin in fibroblasts (real-time RT-PCR); format: cell-based, human; conditions: 24 hours
Method: as §10

## COc1ccc(O)c(C(C)(C)C)c1 [BHA, Butylated hydroxyanisole]
[1]
  Protection %: 50%
  Relative intracellular quantity of lipid peroxides, % of “oxidised cell” standard: 89** %
Oxidised proteins
  Oxidised proteins (cytoplasmic fluorescence intensity/number of cells): 105 314*
  Oxidised proteins, % vs “senescent cells” (P16): −57%

## [Ca+2] [Calcium, calcium]
[2]; 1.5 mM calcium
  GAG synthesis, 35-5 sulphate incorporation (cpm): 17753 ± 876 cpm
  GAG synthesis, % vs control cells: +59%

## O=c1c(O)c(-c2ccc(O)c(O)c2)oc2cc(O)cc(O)c12 [Quercetin]
[3]
  Tryptase: 44 ± 2 mg/mL
  tryptase release, Inhibition (% vs stimulated cells): −47%

## CC1=C(/C=C/C(C)=C/C=C/C(C)=C/C(=O)O)C(C)(C)CCC1 [retinoic acid]
[2]; 0.1 μM retinoic acid
  GAG synthesis, 35-5 sulphate incorporation (cpm): 13217 ± 421 cpm
Heme oxygenase 1; 6 hours
  % variation with respect to reference: Heme oxygenase 1: −17%
Heme oxygenase 1; 24 hours
  % variation with respect to reference: Heme oxygenase 1: +108%
Thioredoxin; 6 hours
  % variation with respect to reference: Thioredoxin: −26%
Thioredoxin; 24 hours
  % variation with respect to reference: Thioredoxin: +126%
Desmosglein 1; 6 hours
  % variation with respect to reference: Desmosglein 1: −40%
Desmosglein 1; 24 hours
  % variation with respect to reference: Desmosglein 1: −95%
[4]; 6 hours
  % variation with respect to reference: SPRL6A: −41%
[4]; 24 hours
  % variation with respect to reference: SPRL6A: +202%
[5]
  NHDF proliferation, % vs control cells: +20%
  NHDF proliferation, Neutral Red (OD 540): 0.1923 ± 0.00765 OD 540
S100 A8; 6 hours
  % variation with respect to reference: S100 A8: +34%
S100 A8; 24 hours
  % variation with respect to reference: S100 A8: +1347%
S100 A9; 6 hours
  % variation with respect to reference: S100 A9: +83%
S100 A9; 24 hours
  % variation with respect to reference: S100 A9: +552%
[6]; 6 hours
  % variation with respect to reference: Lysyl oxidase like 2 (LOXL2): −16%
[6]; 24 hours
  % variation with respect to reference: Lysyl oxidase like 2 (LOXL2): −16%
S100 A7; 6 hours
  % variation with respect to reference: S100 A7: +118%
S100 A7; 24 hours
  % variation with respect to reference: S100 A7: +3240%
Elafin; 6 hours
  % variation with respect to reference: Elafin: +13%
Elafin; 24 hours
  % variation with respect to reference: Elafin: −22%
Hyaluronic acid
  Hyaluronic acid synthesis/release, % vs control cells: +146%
Hyaluronic acid; culture supernatant
  Hyaluronic acid synthesis/release, HA: 11500 ± 457 ng/mL
[7]
  NHEK proliferation, % vs control cells: +36%
  NHEK proliferation, Neutral Red (OD 540): 0.6981 ± 0.1627 OD 540
NICE-1 protein; 6 hours
  % variation with respect to reference: NICE-1 protein: −3%
NICE-1 protein; 24 hours
  % variation with respect to reference: NICE-1 protein: +217%

## IL-1β: interleukin-1β, positive induction checking for hBD-2
hBD-2
  hBD-2 (OD), Average: 0.106 OD
hBD-2; single replicates
  hBD-2 (OD): 0.103 OD and 0.11 OD and 0.105 OD

## TGF b1: TGFβ1 [R&D Systems], positive control / reference
MMP1
  Gene expression of MMP1, Inhibition (% vs stimulated cells): −66 $$ %
  Gene expression of MMP1, Relative quantity standardised with YWHA2: 0.61
MMP1; listed as TGFβ1
  Gene expression of MMP1, Inhibition (% vs stimulated cells): −66%
Collagen I; 5 mg/ml TGF b1
  Gene expression of Collagen I, Relative quantity standardised with HPRT: 1.74*
Collagen I; TGFβ1 positive control
  increase in gene expression of type I collagen: 74%
Elastin; 5 mg/ml TGF b1
  Gene expression of Elastin, Relative quantity standardised with HPRT: 1.59
Elastin; TGFβ1 positive control
  increase in gene expression of elastin: 59%
